PubChem BioAssay AID2060885 (Molecular Pharmacology Branch, DTP, NCI, 2025)

System: NCI-H23 complex spheroids with HUVEC/MSC, viability
Assay: Anticancer human tumor NCI-H23 cell line growth inhibition [RAS];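 note: spheroids exposed to compound for 7 days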;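 for viability, T/C: 100% = DMSO vehicle control viability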
Settings: for IC50: curve of first compound; for viability, T/C: stronger effect = lower value
Method in brief: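 Agents were tested in combination matrices in half-log decrements from a top concentration at or near clinical Cmax (10 microM if undetermined). Targets were multi-cell spheroids of tumour lines plus HUVEC and MSC stromal cells.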

[1] = second compound 0.00316 µM, first compound 0.0316 µM
[2] = second compound 0.00316 µM, first compound 0.1 µM
[3] = second compound 0.00316 µM, first compound 0.316 µM
[4] = second compound 0.00316 µM, first compound 1 µM
[5] = second compound 0.01 µM, first compound 0.0316 µM
[6] = second compound 0.01 µM, first compound 0.1 µM
[7] = second compound 0.01 µM, first compound 0.316 µM
[8] = second compound 0.01 µM, first compound 1 µM
[9] = second compound 0.0316 µM, first compound 0.0316 µM
[10] = second compound 0.0316 µM, first compound 0.1 µM
[11] = second compound 0.0316 µM, first compound 0.316 µM
[12] = second compound 0.0316 µM, first compound 1 µM
[13] = second compound 0.1 µM, first compound 0.0316 µM
[14] = second compound 0.1 µM, first compound 0.1 µM
[15] = second compound 0.1 µM, first compound 0.316 µM
[16] = second compound 0.1 µM, first compound 1 µM
[17] = second compound 0.316 µM, first compound 0.0316 µM
[18] = second compound 0.316 µM, first compound 0.1 µM
[19] = second compound 0.316 µM, first compound 0.316 µM
[20] = second compound 0.316 µM, first compound 1 µM
[21] = second compound 1 µM, first compound 0.0316 µM
[22] = second compound 1 µM, first compound 0.1 µM
[23] = second compound 1 µM, first compound 0.316 µM
[24] = second compound 1 µM, first compound 1 µM

For `CC(Nc1ccc2c(c1)OCCn1cc(N3C(=O)OCC3C(F)F)nc1-2)C(N)=O` (centres undefined) + C=CC(=O)N1CCN(c2nc(OCC3CCCN3C)nc3c(F)c(-c4nc(N)cc(C)c4C(F)(F)F)c(Cl)cc23)C(C)C1, the IC50 (second compound 0.00316 µM) was 142 nM, the IC50 (second compound 0.01 µM) was less than 31.6 nM and the IC50 (second compound 0.0316 µM) was less than 31.6 nM. It also gave an IC50 (second compound 0.1 µM) of less than 31.6 nM, an IC50 (second compound 0.316 µM) of less than 31.6 nM and an IC50 (second compound 1 µM) of less than 31.6 nM. For the same compound, the viability, T/C [1] was 51.2%, the viability, T/C [2] was 60.2% and the viability, T/C [3] was 34.6%. The viability, T/C [4] was 39.1%, the viability, T/C (second compound 0.00316 µM, first compound 3.16 µM) was 35.8% and the viability, T/C (second compound 0.00316 µM, first compound 10 µM) was 38.3%. For the same compound, the viability, T/C [5] was 43.8%, the viability, T/C [6] was 40.7% and the viability, T/C [7] was 35.9%. The viability, T/C [8] was 28.7%, the viability, T/C (second compound 0.01 µM, first compound 3.16 µM) was 31% and the viability, T/C (second compound 0.01 µM, first compound 10 µM) was 26.5%. For the same compound, the viability, T/C [9] was 36.4%, the viability, T/C [10] was 35.5% and the viability, T/C [11] was 27.2%. It also gave a viability, T/C [12] of 27.3%, a viability, T/C (second compound 0.0316 µM, first compound 3.16 µM) of 24.8% and a viability, T/C (second compound 0.0316 µM, first compound 10 µM) of 23.3%. The viability, T/C [13] was 31.4%, the viability, T/C [14] was 29.3% and the viability, T/C [15] was 26.4%. It also gave a viability, T/C [16] of 27.6%, a viability, T/C (second compound 0.1 µM, first compound 3.16 µM) of 22.9% and a viability, T/C (second compound 0.1 µM, first compound 10 µM) of 22.4%. The viability, T/C [17] was 28.7%, the viability, T/C [18] was 31.2% and the viability, T/C [19] was 30%. For the same compound, the viability, T/C [20] was 23.7%, the viability, T/C (second compound 0.316 µM, first compound 3.16 µM) was 25.9% and the viability, T/C (second compound 0.316 µM, first compound 10 µM) was 24.3%. The viability, T/C [21] was 33%, the viability, T/C [22] was 33.5% and the viability, T/C [23] was 28.8%. The viability, T/C [24] was 22.5%, the viability, T/C (second compound 1 µM, first compound 3.16 µM) was 27.8% and the viability, T/C (second compound 1 µM, first compound 10 µM) was 25%.
`O=C(c1ccc(F)c(F)c1Nc1ccc(I)cc1F)N1CC(O)([C@@H]2CCCCN2)C1` + C=CC(=O)N1CCN(c2nc(OCC3CCCN3C)nc3c(F)c(-c4nc(N)cc(C)c4C(F)(F)F)c(Cl)cc23)C(C)C1 showed an IC50 (second compound 0.00316 µM) of 43.5 nM, an IC50 (second compound 0.01 µM) of 4.49 nM and an IC50 (second compound 0.0316 µM) of less than 3.16 nM. The IC50 (second compound 0.1 µM) was less than 3.16 nM, the IC50 (second compound 0.316 µM) was less than 3.16 nM and the IC50 (second compound 1 µM) was less than 3.16 nM. It also gave a viability, T/C (second compound 0.00316 µM, first compound 0.00316 µM) of 58.7%, a viability, T/C (second compound 0.00316 µM, first compound 0.01 µM) of 61% and a viability, T/C [1] of 52.9%. The viability, T/C [2] was 40.7%, the viability, T/C [3] was 29.3% and the viability, T/C [4] was 16.8%. The viability, T/C (second compound 0.01 µM, first compound 0.00316 µM) was 50.9%, the viability, T/C (second compound 0.01 µM, first compound 0.01 µM) was 50.1% and the viability, T/C [5] was 41.1%. The viability, T/C [6] was 40%, the viability, T/C [7] was 28.6% and the viability, T/C [8] was 14.9%. For the same compound, the viability, T/C (second compound 0.0316 µM, first compound 0.00316 µM) was 44.7%, the viability, T/C (second compound 0.0316 µM, first compound 0.01 µM) was 48.9% and the viability, T/C [9] was 37.2%. For the same compound, the viability, T/C [10] was 32.4%, the viability, T/C [11] was 24% and the viability, T/C [12] was 11.8%. It also gave a viability, T/C (second compound 0.1 µM, first compound 0.00316 µM) of 37.1%, a viability, T/C (second compound 0.1 µM, first compound 0.01 µM) of 40.2% and a viability, T/C [13] of 33.3%. The viability, T/C [14] was 28.9%, the viability, T/C [15] was 24% and the viability, T/C [16] was 13.4%. For the same compound, the viability, T/C (second compound 0.316 µM, first compound 0.00316 µM) was 40%, the viability, T/C (second compound 0.316 µM, first compound 0.01 µM) was 37.5% and the viability, T/C [17] was 30.6%. For the same compound, the viability, T/C [18] was 28%, the viability, T/C [19] was 21.2% and the viability, T/C [20] was 13.7%. The viability, T/C (second compound 1 µM, first compound 0.00316 µM) was 39%, the viability, T/C (second compound 1 µM, first compound 0.01 µM) was 38.4% and the viability, T/C [21] was 31.4%. The viability, T/C [22] was 32.7%, the viability, T/C [23] was 24.2% and the viability, T/C [24] was 12.6%.
